# Results published in patent US12559506B2, “Indazole based compounds and associated methods of use” (Arvinas Operations, Inc., priority 2021, dated 2026).
# Read-outs that look alike come from different tables or passages of the source.
# Target: T1, LRRK2 (endogenous, HiBit tagged) (Homo sapiens, UniProt Q5S007)
# T1 construct: endogenous in cells; host or cells: HEK293 cells with HiBit knock-in at the endogenous LRRK2 locus, stably expressing firefly luciferase
# Assay: Endogenous LRRK2 degradation assay, endogenous gene C-terminally HiBit-tagged in HEK293 cells (Nano-Glo Dual Luciferase)
# Assay type: cell-based
# How it was run: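 LRRK2-HiBit quantified via Nano-Glo Dual Luciferase in HEK293 knock-in cells co-expressing firefly luciferase, after 24 h exposure to compound (1 μM final top, 1:3, 11 points). Values normalised to DMSO median per plate and curve-fitted; Alamar Blue viability run alongside.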
# [1] = endogenous HiBit-tagged LRRK2 in HEK293 cells, 24 hours treatment, read-out: Endogenous WT DC50
# [2] = endogenous HiBit-tagged LRRK2 in HEK293 cells, 24 hours treatment, read-out: Endogenous WT Dmax
# [3] = endogenous HiBit-tagged LRRK2 in HEK293 cells, 24 hours treatment, read-out: **Endogenous WT Dmax (%)
# [4] = endogenous HiBit-tagged LRRK2 in HEK293 cells, 24 hours treatment, read-out: *Endogenous WT DC50
# T1 sequence (Q5S007 whole entry): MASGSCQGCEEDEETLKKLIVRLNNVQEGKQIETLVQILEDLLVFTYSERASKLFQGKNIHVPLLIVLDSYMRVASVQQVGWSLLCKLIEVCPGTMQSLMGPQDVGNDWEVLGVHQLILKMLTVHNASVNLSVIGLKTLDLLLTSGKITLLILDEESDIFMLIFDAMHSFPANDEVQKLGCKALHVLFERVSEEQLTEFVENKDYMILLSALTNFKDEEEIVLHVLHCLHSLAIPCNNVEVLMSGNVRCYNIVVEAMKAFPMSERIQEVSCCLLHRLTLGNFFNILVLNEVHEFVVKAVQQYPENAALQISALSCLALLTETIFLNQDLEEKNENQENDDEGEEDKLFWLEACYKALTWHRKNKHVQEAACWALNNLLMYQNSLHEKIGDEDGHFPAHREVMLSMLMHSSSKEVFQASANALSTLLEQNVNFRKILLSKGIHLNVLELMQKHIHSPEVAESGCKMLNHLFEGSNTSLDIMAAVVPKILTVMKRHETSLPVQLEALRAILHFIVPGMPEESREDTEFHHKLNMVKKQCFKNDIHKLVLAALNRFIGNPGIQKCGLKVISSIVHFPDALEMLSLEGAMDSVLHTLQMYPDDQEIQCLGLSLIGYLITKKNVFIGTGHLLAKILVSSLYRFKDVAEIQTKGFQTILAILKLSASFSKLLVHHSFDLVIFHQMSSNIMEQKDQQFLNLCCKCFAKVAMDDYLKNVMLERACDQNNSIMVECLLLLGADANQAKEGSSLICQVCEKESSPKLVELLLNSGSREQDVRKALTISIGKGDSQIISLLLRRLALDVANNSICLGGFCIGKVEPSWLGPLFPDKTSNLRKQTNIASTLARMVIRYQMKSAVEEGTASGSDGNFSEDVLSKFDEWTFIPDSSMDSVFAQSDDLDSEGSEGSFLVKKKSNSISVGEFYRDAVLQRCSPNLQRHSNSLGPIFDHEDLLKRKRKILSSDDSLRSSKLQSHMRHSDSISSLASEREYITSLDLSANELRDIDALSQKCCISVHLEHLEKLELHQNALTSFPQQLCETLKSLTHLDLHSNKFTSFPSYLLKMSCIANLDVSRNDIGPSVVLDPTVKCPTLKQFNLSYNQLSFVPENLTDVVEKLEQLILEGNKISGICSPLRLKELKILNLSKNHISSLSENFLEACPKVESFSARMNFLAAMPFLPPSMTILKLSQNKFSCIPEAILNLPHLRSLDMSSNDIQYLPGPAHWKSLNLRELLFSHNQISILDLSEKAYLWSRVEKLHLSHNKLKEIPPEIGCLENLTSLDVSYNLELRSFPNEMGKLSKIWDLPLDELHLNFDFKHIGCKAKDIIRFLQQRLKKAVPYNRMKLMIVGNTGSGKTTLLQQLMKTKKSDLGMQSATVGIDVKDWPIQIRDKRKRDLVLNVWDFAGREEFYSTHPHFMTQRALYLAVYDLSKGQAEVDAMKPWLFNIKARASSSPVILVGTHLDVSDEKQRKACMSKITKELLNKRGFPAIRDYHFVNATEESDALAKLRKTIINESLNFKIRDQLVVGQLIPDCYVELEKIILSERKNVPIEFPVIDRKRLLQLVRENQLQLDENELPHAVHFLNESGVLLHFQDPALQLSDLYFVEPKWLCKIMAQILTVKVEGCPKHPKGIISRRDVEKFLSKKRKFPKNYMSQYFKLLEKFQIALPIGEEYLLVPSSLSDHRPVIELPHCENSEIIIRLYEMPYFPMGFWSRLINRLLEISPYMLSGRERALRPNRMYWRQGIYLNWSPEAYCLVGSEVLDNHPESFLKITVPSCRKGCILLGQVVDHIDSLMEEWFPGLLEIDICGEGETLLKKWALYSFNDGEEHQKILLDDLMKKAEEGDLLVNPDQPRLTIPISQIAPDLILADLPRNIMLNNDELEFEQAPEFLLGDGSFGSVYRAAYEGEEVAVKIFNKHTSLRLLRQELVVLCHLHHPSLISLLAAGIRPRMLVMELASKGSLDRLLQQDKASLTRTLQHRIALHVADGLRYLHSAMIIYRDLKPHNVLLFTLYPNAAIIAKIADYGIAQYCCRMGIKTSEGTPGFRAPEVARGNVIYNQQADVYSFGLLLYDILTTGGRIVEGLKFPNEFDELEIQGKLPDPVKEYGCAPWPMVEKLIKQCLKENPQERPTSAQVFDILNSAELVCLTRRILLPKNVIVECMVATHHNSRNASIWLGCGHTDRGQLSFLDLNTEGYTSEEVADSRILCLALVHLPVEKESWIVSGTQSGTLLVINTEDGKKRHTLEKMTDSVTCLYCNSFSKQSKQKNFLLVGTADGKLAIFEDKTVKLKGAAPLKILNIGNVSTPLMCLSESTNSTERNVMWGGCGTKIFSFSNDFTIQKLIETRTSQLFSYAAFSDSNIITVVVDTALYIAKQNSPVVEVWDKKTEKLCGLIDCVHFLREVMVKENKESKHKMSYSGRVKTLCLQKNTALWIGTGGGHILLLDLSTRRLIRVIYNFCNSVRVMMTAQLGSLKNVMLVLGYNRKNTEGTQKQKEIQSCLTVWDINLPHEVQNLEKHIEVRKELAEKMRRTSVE
SMILES,DC50 [1],Dmax [2],Dmax [3],DC50 [4],other results
"COc1c(N2CCC(CN3CCN(CC4CCN(c5cc(-c6n[nH]c7ccc(OC8(C)CC8)cc67)ncn5)CC4)C[C@H]3C)CC2)ccc2c1CN(C1CCC(=O)NC1=O)C2=O (stereo partly drawn) [Compound 285, 3-[4-methoxy-5-(4-{[(2R)-2-methyl-4-[(1-{6-[5-(1-methylcyclopropoxy)-1H-indazol-3-yl]pyrimidin-4-yl}piperidin-4-yl)methyl]piperazin-1-yl]methyl}piperidin-1-yl)-1-oxo-2,3-dihydro-1H-isoindol-2-yl]piperidine-2,6-dione]",–,–,≥ 70%,< 10 nM,–
"COc1c(N2CCN(C[C@H]3CC[C@H](CN4CCN(c5cc(-c6n[nH]c7ccc(OC8(C)CC8)cc67)ncn5)CC4)CC3)CC2)ccc2c1CN(C1CCC(=O)NC1=O)C2=O (stereo partly shown) [Compound 265, 3-[4-methoxy-1-oxo-5-(4-{[(1r,4r)-4-[(4-{6-[5-(1-methylcyclopropoxy)-1H-indazol-3-yl]pyrimidin-4-yl}piperazin-1-yl)methyl]cyclohexyl]methyl}piperazin-1-yl)-2,3-dihydro-1H-isoindol-2-yl]piperidine-2,6-dione]",–,–,≥ 70%,< 10 nM,–
"CC1(Oc2ccc3[nH]nc(-c4cc(N5CC[C@@H](CN6CCN(CC7CCN(c8ccc9c(c8F)CN(C8CCC(=O)NC8=O)C9=O)CC7)CC6)C5)ncn4)c3c2)CC1 (stereo partly drawn) [Compound 327, 3-(4-fluoro-5-{4-[(4-{[(3S)-1-{6-[5-(1-methylcyclopropoxy)-1H-indazol-3-yl]pyrimidin-4-yl}pyrrolidin-3-yl]methyl}piperazin-1-yl)methyl]piperidin-1-yl}-1-oxo-2,3-dihydro-1H-isoindol-2-yl)piperidine-2,6-dione]",–,–,50 to 70%,< 10 nM,–
"CC1(Oc2cc3c(-c4cc(N5CCC(CN6CCN(CC7CCN(c8ccc9c(c8F)CN(C8CCC(=O)NC8=O)C9=O)CC7)C(C)(C)C6)CC5)ncn4)n[nH]c3cc2F)CC1 (stereo not shown) [Compound 275, 3-{4-fluoro-5-[4-({4-[(1-{6-[6-fluoro-5-(1-methylcyclopropoxy)-1H-indazol-3-yl]pyrimidin-4-yl}piperidin-4-yl)methyl]-2,2-dimethylpiperazin-1-yl}methyl)piperidin-1-yl]-1-oxo-2,3-dihydro-1H-isoindol-2-yl}piperidine-2,6-dione]",–,–,50 to 70%,< 10 nM,–
"COc1c(N2CC[C@@H](CN3CCN(CC4CCN(c5cc(-c6n[nH]c7ccc(OC8(C)CC8)cc67)ncn5)CC4)CC3)C2)ccc2c1CN(C1CCC(=O)NC1=O)C2=O (stereo partly drawn) [Compound 328, 3-{4-methoxy-5-[(3S)-3-({4-[(1-{6-[5-(1-methylcyclopropoxy)-1H-indazol-3-yl]pyrimidin-4-yl}piperidin-4-yl)methyl]piperazin-1-yl}methyl)pyrrolidin-1-yl]-1-oxo-2,3-dihydro-1H-isoindol-2-yl}piperidine-2,6-dione]",–,–,50 to 70%,< 10 nM,–
"COc1c(N2CCC(CN3CCN(C[C@H]4CCN(c5cc(-c6n[nH]c7ccc(OC8(C)CC8)cc67)ncn5)C4)CC3)CC2)ccc2c1CN(C1CCC(=O)NC1=O)C2=O (stereo partly drawn) [Compound 303, 3-(4-methoxy-5-{4-[(4-{[(3R)-1-{6-[5-(1-methylcyclopropoxy)-1H-indazol-3-yl]pyrimidin-4-yl}pyrrolidin-3-yl]methyl}piperazin-1-yl)methyl]piperidin-1-yl}-1-oxo-2,3-dihydro-1H-isoindol-2-yl)piperidine-2,6-dione]",–,–,50 to 70%,< 10 nM,–
"CC1(Oc2cc3c(-c4cc(N5CCC(CN6CCC(F)(CC7CCN(c8ccc9c(c8F)CN(C8CCC(=O)NC8=O)C9=O)CC7)CC6)CC5)ncn4)n[nH]c3cc2F)CC1 (stereo not shown) [Compound 232, 3-{4-fluoro-5-[4-({4-fluoro-1-[(1-{6-[6-fluoro-5-(1-methylcyclopropoxy)-1H-indazol-3-yl]pyrimidin-4-yl}piperidin-4-yl)methyl]piperidin-4-yl}methyl)piperidin-1-yl]-1-oxo-2,3-dihydro-1H-isoindol-2-yl}piperidine-2,6-dione]",< 10 nM,50 to 70%,–,–,–
"C[C@H]1CN(c2cc(-c3[nH]nc4cc(F)c(OC5(C)CC5)cc34)ncn2)CCN1CC1(F)CCN(CC2CCN(c3cc4c(cc3F)C(=O)N(C3CCC(=O)NC3=O)C4)CC2)CC1 (stereo partly drawn) [Compound 197, 3-(6-fluoro-5-{4-[(4-fluoro-4-{[(2S)-4-{6-[6-fluoro-5-(1-methylcyclopropoxy)-2H-indazol-3-yl]pyrimidin-4-yl}-2-methylpiperazin-1-yl]methyl}piperidin-1-yl)methyl]piperidin-1-yl}-1-oxo-2,3-dihydro-1H-isoindol-2-yl)piperidine-2,6-dione]",–,–,–,–,"Dmax (endogenous HiBit-tagged LRRK2, HEK293 cells, 24 hours, read-out: **Endogenous WT Dmax (%)): ≥ 70%; DC50 (endogenous HiBit-tagged LRRK2, HEK293 cells, 24 hours, read-out: *Endogenous WT DC50): < 10 nM"
"CC1(Oc2cc3c(-c4cc(N5CCN(C[C@H]6CC[C@H](CN7CCN(c8ccc9c(c8F)CN(C8CCC(=O)NC8=O)C9=O)CC7)CC6)CC5)ncn4)n[nH]c3cn2)CC1 (stereo partly shown) [Compound 267, 3-[4-fluoro-1-oxo-5-(4-{[(1r,4r)-4-[(4-{6-[5-(1-methylcyclopropoxy)-1H-pyrazolo[3,4-c]pyridin-3-yl]pyrimidin-4-yl}piperazin-1-yl)methyl]cyclohexyl]methyl}piperazin-1-yl)-2,3-dihydro-1H-isoindol-2-yl]piperidine-2,6-dione]",–,–,≥ 70%,< 10 nM,–
"CC1(Oc2ccc3[nH]nc(-c4cc(N5CCC(C(C)(C)N6CCN(CC7CCN(c8ccc9c(c8F)CN(C8CCC(=O)NC8=O)C9=O)CC7)CC6)CC5)ncn4)c3c2)CC1 (stereo not shown) [Compound 320, 3-{4-fluoro-5-[4-({4-[2-(1-{6-[5-(1-methylcyclopropoxy)-1H-indazol-3-yl]pyrimidin-4-yl}piperidin-4-yl)propan-2-yl]piperazin-1-yl}methyl)piperidin-1-yl]-1-oxo-2,3-dihydro-1H-isoindol-2-yl}piperidine-2,6-dione]",–,–,50 to 70%,< 10 nM,–
"CC1(Oc2cc3c(-c4cc(N5CCC(CC6(F)CCN(CC7CCN(c8ccc9c(c8F)CN(C8CCC(=O)NC8=O)C9=O)CC7)CC6)CC5)ncn4)n[nH]c3cc2F)CC1 (stereo not shown) [Compound 207, 3-[4-fluoro-5-[4-[[4-fluoro-4-[[1-[6-[6-fluoro-5-(1-methylcyclopropoxy)-1H-indazol-3-yl]pyrimidin-4-yl]-4-piperidyl]methyl]-1-piperidyl]methyl]-1-piperidyl]-1-oxo-isoindolin-2-yl]piperidine-2,6-dione]",10 to 50 nM,50 to 70%,–,–,–
"CC1(Oc2cc3c(-c4cc(N5CCC(O[C@H]6CC[C@H](CN7CCN(c8ccc9c(c8F)CN(C8CCC(=O)NC8=O)C9=O)CC7)CC6)CC5)ncn4)n[nH]c3cc2F)CC1 (stereo partly shown) [Compound 259, 3-[4-fluoro-1-oxo-5-(4-{[(1r,4r)-4-[(1-{6-[6-fluoro-5-(1-methylcyclopropoxy)-1H-indazol-3-yl]pyrimidin-4-yl}piperidin-4-yl)oxy]cyclohexyl]methyl}piperazin-1-yl)-2,3-dihydro-1H-isoindol-2-yl]piperidine-2,6-dione]",–,–,50 to 70%,< 10 nM,–

# Second part, led by results:
DC50 [1],Dmax [2],Dmax [3],DC50 [4],SMILES,other results
10 to 50 nM,< 50%,–,–,"CC1(Oc2ccc3[nH]nc(-c4cc(N5CCN(C[C@H]6CC[C@H](OC7CCN(c8ccc9c(c8F)CN(C8CCC(=O)NC8=O)C9=O)CC7)CC6)C(C)(C)C5)ncn4)c3c2)CC1 (stereo partly shown) [Compound 381, 3-[4-fluoro-1-oxo-5-(4-{[(1r,4r)-4-[(2,2-dimethyl-4-{6-[5-(1-methylcyclopropoxy)-1H-indazol-3-yl]pyrimidin-4-yl}piperazin-1-yl)methyl]cyclohexyl]oxy}piperidin-1-yl)-2,3-dihydro-1H-isoindol-2-yl]piperidine-2,6-dione]",–
< 10 nM,50 to 70%,–,–,"CC1(Oc2ccc3[nH]nc(-c4cnnc(N5CCC(O[C@H]6CC[C@H](CN7CCN(c8ccc9c(c8F)CN(C8CCC(=O)NC8=O)C9=O)CC7)CC6)CC5)c4)c3c2)CC1 (stereo partly shown) [Compound 377, 3-[4-fluoro-1-oxo-5-(4-{[(1r,4r)-4-[(1-{5-[5-(1-methylcyclopropoxy)-1H-indazol-3-yl]pyridazin-3-yl}piperidin-4-yl)oxy]cyclohexyl]methyl}piperazin-1-yl)-2,3-dihydro-1H-isoindol-2-yl]piperidine-2,6-dione]",–
< 10 nM,50 to 70%,–,–,"COc1c(N2CCC(O[C@H]3CC[C@H](CN4CCN(c5cc(-c6n[nH]c7ccc(OC8(C)CC8)cc67)ncn5)C[C@@H]4C)CC3)CC2)ccc2c1CN(C1CCC(=O)NC1=O)C2=O (stereo partly drawn) [Compound 366, 3-[4-methoxy-1-oxo-5-(4-{[(1r,4r)-4-{[(2S)-2-methyl-4-{6-[5-(1-methylcyclopropoxy)-1H-indazol-3-yl]pyrimidin-4-yl}piperazin-1-yl]methyl}cyclohexyl]oxy}piperidin-1-yl)-2,3-dihydro-1H-isoindol-2-yl]piperidine-2,6-dione]",–
< 10 nM,≥ 70%,–,–,"CC1(Oc2ccc3[nH]nc(-c4cc(N5CCC(CN6CCC(F)(CN7CCN(c8c(F)cc9c(c8F)CN(C8CCC(=O)NC8=O)C9=O)CC7)CC6)CC5)ncn4)c3c2)CC1 (stereo not shown) [Compound 373, 3-{4,6-difluoro-5-[4-({4-fluoro-1-[(1-{6-[5-(1-methylcyclopropoxy)-1H-indazol-3-yl]pyrimidin-4-yl}piperidin-4-yl)methyl]piperidin-4-yl}methyl)piperazin-1-yl]-1-oxo-2,3-dihydro-1H-isoindol-2-yl}piperidine-2,6-dione]",–
–,–,50 to 70%,< 10 nM,"COc1c(N2CC3(CCN(CC4CCN(c5cc(-c6n[nH]c7ccc(OC8(C)CC8)cc67)ncn5)CC4)CC3(F)F)C2)ccc2c1CN(C1CCC(=O)NC1=O)C2=O (stereo not shown) [Compound 332, 3-(5-{5,5-difluoro-7-[(1-{6-[5-(1-methylcyclopropoxy)-1H-indazol-3-yl]pyrimidin-4-yl}piperidin-4-yl)methyl]-2,7-diazaspiro[3.5]nonan-2-yl}-4-methoxy-1-oxo-2,3-dihydro-1H-isoindol-2-yl)piperidine-2,6-dione]",–
